US7935722B2 (Eli Lilly and Company, priority 2005, dated 2011)
Read-outs that look alike come from different tables or passages of the source.

Assays:
[1] = molecular target: T1, human AR (androgen receptor) (Homo sapiens, UniProt P10275); assay: Steroid hormone nuclear receptor binding assay, AR binding
T1 construct: expressed in transfected cells; host or cells: 293 cells (293-AR lysate)
T1 sequence (P10275 1-920): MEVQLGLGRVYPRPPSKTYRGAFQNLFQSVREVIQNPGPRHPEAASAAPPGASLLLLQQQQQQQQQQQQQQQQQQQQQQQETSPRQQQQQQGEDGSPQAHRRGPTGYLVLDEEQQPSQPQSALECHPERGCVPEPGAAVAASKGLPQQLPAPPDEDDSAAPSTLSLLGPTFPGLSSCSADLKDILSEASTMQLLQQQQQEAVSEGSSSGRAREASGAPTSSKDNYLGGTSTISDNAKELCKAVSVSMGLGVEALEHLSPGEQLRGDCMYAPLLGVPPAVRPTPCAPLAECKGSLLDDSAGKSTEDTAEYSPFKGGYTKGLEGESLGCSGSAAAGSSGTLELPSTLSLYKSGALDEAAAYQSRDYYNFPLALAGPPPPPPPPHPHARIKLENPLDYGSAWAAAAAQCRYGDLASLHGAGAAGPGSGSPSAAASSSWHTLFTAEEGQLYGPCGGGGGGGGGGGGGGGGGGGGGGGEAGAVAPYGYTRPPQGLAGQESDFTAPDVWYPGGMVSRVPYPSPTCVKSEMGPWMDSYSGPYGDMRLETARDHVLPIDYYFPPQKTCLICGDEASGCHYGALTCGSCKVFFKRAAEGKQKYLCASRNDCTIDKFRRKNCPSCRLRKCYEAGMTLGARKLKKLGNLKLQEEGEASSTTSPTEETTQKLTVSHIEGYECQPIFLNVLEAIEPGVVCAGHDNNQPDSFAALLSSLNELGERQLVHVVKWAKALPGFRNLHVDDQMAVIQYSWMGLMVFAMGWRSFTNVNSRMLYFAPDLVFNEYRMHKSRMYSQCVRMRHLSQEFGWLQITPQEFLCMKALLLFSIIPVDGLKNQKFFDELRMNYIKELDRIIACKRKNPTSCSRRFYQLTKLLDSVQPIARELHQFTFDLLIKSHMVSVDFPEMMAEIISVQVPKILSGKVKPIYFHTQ
Summary of the method: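 Competition binding with lysates of 293 cells overexpressing human AR, [3H]-methyltrienolone tracer, compounds from about 0.01 nM to 10 μM, overnight at 4 °C; non-specific binding set with 500 nM methyltrienolone. Bound tracer counted by scintillation after charcoal-dextran separation; IC50 converted to Ki by Cheng-Prusoff using Kd from saturation binding.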

[2] = molecular target: T2, human androgen receptor (AR) (Homo sapiens, UniProt P10275); assay: C2C12 AR/ARE reporter assay; format: cell-based; conditions: for Emax: C2C12, read-out: C2C12 % Efficacy
T2 construct: expressed in transfected cells; host or cells: mouse myoblast C2C12 cells, transiently co-transfected
T2 sequence (P10275 1-920): T1 sequence (P10275 1-920)
Summary of the method: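 Mouse C2C12 myoblasts co-transfected with AR/ARE reporter were plated in charcoal-stripped serum and treated for 48 h with compound from about 0.01 nM to 10 μM. Luciferase activity gave EC50 by 4-parameter logistic fit. Efficacy is expressed as % of maximal stimulation by 10 nM methyltrienolone.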

SMILES	Ki [1]	EC50 [2]	Emax [2]	melting point	Ki ([1]; read-out: AR binding Ki, average of n trials)	EC50 ([2]; read-out: C2C12 EC50, C2C12 AR/ARE reporter assay, average of n trials)
CC(C)C(=O)NC1CCc2c(c3cc(-c4nnc(N)s4)ccc3n2Cc2cccc(F)c2)C1 (centres unmarked) [Example 125, N-[6-(5-Amino[1,3,4]thiadiazol-2-yl)-9-(3-fluorobenzyl)-2,3,4,9-tetrahydro-1H-carbazol-3-yl]isobutyramide]	55.1 nM	68.5 nM	75.8%	251 to 254 °C	–	–
CC(C)C(=O)NC1CCc2c(c3cccc(Cl)c3n2Cc2cccc(F)c2)C1 (centres unmarked) [Example 57]	25.1 nM	323 nM	36.5%	205 to 207 °C	–	–
CC(C)C(=O)NC1CCc2c(c3cc(C#N)ccc3n2Cc2ccccc2C(F)(F)F)C1 (centres unmarked) [Example 96, N-[6-Cyano-9-(2-trifluoromethyl-benzyl)-2,3,4,9-tetrahydro-1H-carbazol-3-yl]-isobutyramide]	14.7 nM	123 nM	88%	222 to 225 °C	–	–
COc1ccc(Cn2c3c(c4cc(Cl)ccc42)CC(NC(=O)C(C)C)CC3)cc1 (centres unmarked) [Example 27]	45.8 nM	–	23.2%	182 to 184 °C	–	–
COc1cc2c3c(n(Cc4cccc(F)c4)c2cc1Cl)CCC(NC(=O)C(C)C)C3 (centres unmarked) [Example 59]	59 nM	242 nM	39.5%	212 to 215 °C	–	–
CC(C)C(=O)NC1CCc2c(c3cc(-c4ccccn4)ccc3n2Cc2cccc(F)c2)C1 (centres unmarked) [Example 131, N-[9-(3-Fluorobenzyl)-6-pyridin-2-yl-2,3,4,9-tetrahydro-1H-carbazol-3-yl]isobutyramide]	118 nM	65.2 nM	91.3%	228 to 230 °C	–	–
CC(C)C(=O)NC1CCc2c(c3cc4c(cc3n2Cc2cccc(F)c2)OC(F)(F)O4)C1 (centres unmarked) [Example 99, N-[2,2-Difluoro-9-(3-fluoro-benzyl)-6,7,8,9-tetrahydro-5H-1,3-dioxa-9-aza-cyclopenta[b]fluoren-6-yl]-isobutyramide]	6.2 nM	9.4 nM	69%	197 to 199 °C	–	–
CC(C)C(=O)NC1CCc2c(c3cc(Cl)ccc3n2Cc2ccc(C#N)cc2)C1 (centres unmarked) [Example 28]	12.8 nM	301 nM	64.3%	158 to 162 °C	–	–
Cc1ccc2c(c1)c1c(n2Cc2cccc(C#N)c2)CCC(NC(=O)C(C)C)C1 (centres unmarked) [Example 50]	150 nM	940 nM	45.8%	209 to 211 °C	–	–
CC(C)C(=O)NC1CCc2c(c3cc(Br)ccc3n2Cc2ccc(Cl)cc2)C1 (centres unmarked) [Example 40]	30.9 nM	188 nM	68%	142 to 149 °C	–	–
CO/N=C/c1ccc2c(c1)c1c(n2Cc2cccc(F)n2)CC[C@@H](NC(=O)C2CC2)C1 [Example 209]	7.8 nM	1.1 nM	95.7%	223 to 225 °C	–	–
CC(C)C(=O)NC1CCc2c(c3cc(C(N)=O)ccc3n2Cc2cccc(F)c2)C1 (centres unmarked) [Example 63, 9-(3-Fluorobenzyl)-6-isobutyrylamino-6,7,8,9-tetrahydro-5H-carbazole-3-carboxylic acid amide]	39.3 nM	66.9 nM	113%	192 to 194 °C	–	–
CC(C)C(=O)NC1CCc2c(c3cc(Cl)ccc3n2Cc2ccc(Cl)cc2)C1 (centres unmarked) [Example 26]	16.6 nM	301 nM	33%	176 to 178 °C	–	–
CC(C)C(=O)NC1CCc2c(c3cc(Br)ccc3n2Cc2cccc(F)c2)C1 (centres unmarked) [Example 1, N-[9-(3-Fluorobenzyl)-6-bromo-2,3,4,9-tetrahydro-1H-carbazol-3-yl]isobutyramide]	–	–	–	177 to 179 °C	2.6 nM	2.3 nM
CC(C)C(=O)NC1CCc2c(c3cc(C#N)ccc3n2Cc2ccc(F)cn2)C1 (centres unmarked) [Example 181, N-[6-Cyano-9-(5-fluoro-pyridin-2-ylmethyl)-2,3,4,9-tetrahydro-1H-carbazol-3-yl]-isobutyramide]	34.6 nM	87.8 nM	93.5%	235 to 238 °C (dec.)	–	–
COc1ccc(Cn2c3c(c4cc(F)ccc42)CC(NC(=O)C(C)C)CC3)cc1 (centres unmarked) [Example 15]	275 nM	–	15.3%	178 to 181 °C	–	–
CC(C)C(=O)NC1CCc2c(c3cc(Br)ccc3n2Cc2cccc(Cl)c2)C1 (centres unmarked) [Example 36]	7.6 nM	20.7 nM	99.4%	186 to 188 °C	–	–
CC(C)C(=O)NC1CCc2c(c3cc(F)ccc3n2Cc2ccc(F)cc2)C1 (centres unmarked) [Example 12]	25 nM	186 nM	50%	166 to 168 °C	–	–
COC(=O)Nc1ccc2c(c1)c1c(n2Cc2cccc(F)c2)CC[C@@H](NC(=O)C(C)C)C1 [Example 190, (R)-[9-(3-Fluorobenzyl)-6-isobutyrylamino-6,7,8,9-tetrahydro-5H-carbazol-3-yl]-carbamic acid methyl ester]	6.7 nM	2.2 nM	86%	111 to 115 °C	–	–
CC(C)C(=O)NC1CCc2c(c3cc(C#N)ccc3n2Cc2ccccc2OC(F)F)C1 (centres unmarked) [Example 97, N-[6-Cyano-9-(2-difluoromethoxy-benzyl)-2,3,4,9-tetrahydro-1H-carbazol-3-yl]-isobutyramide]	4.6 nM	32.8 nM	102%	217 to 219 °C	–	–
Cc1ccc2c(c1)c1c(n2Cc2ccccc2Cl)CCC(NC(=O)C(C)C)C1 (centres unmarked) [Example 44]	94.2 nM	305 nM	71.1%	194 °C	–	–
Cc1ccc2c(c1)c1c(n2Cc2ccccc2)CCC(NC(=O)C(C)C)C1 (centres unmarked) [Example 42]	63.6 nM	30.4 nM	73%	197 to 199 °C	–	–
CC(C)C(=O)NC1CCc2c(c3cc(F)ccc3n2Cc2cccc(F)c2)C1 (centres unmarked) [Example 8]	2.5 nM	57.8 nM	108%	181 to 184 °C	–	–
CC(C)C(=O)NC1CCc2c(c3cc(F)ccc3n2Cc2ccccc2C#N)C1 (centres unmarked) [Example 7]	99.6 nM	–	35.8%	164 to 167 °C	–	–
Cc1cc(-c2ccc3c(c2)c2c(n3Cc3cccc(F)c3)CC[C@@H](NC(=O)C3CC3)C2)no1 [Example 204, (R)-Cyclopropanecarboxylic acid[9-(3-fluoro-benzyl)-6-(5-methyl-isoxazol-3-yl)-2,3,4,9-tetrahydro-1H-carbazol-3-yl]-amide]	6.8 nM	2.7 nM	90.8%	190 to 192 °C	–	–
CC(C)C(=O)NC1CCc2c(c3ccccc3n2Cc2cccc(F)c2)C1 (centres unmarked) [Example 3]	10.1 nM	194 nM	66.4%	170 to 172 °C	–	–
CO/N=C/c1ccc2c(c1)c1c(n2Cc2ccccn2)CCC(NC(=O)C2CC2)C1 (centres unmarked) [Example 207, Cyclopropanecarboxylic acid[6-(1-methoxyimino-methyl)-9-pyridin-2-ylmethyl-2,3,4,9-tetrahydro-1H-carbazol-3-yl]-amide]	41.6 nM	11.6 nM	93.3%	88 to 92 °C	–	–
CCOC(=O)c1ccc2c(c1)c1c(n2Cc2cccc(F)c2)CCC(NC(=O)C(C)C)C1 (centres unmarked) [Example 52]	6.1 nM	5.6 nM	73.2%	226 to 228 °C	–	–
CC(C)C(=O)NC1CCc2c(c3cc(Br)ccc3n2Cc2cccc(C#N)c2)C1 (centres unmarked) [Example 38]	9.7 nM	108 nM	79.5%	228 to 230 °C	–	–
CC(C)C(=O)N[C@@H]1CCc2c(c3cc(-c4ccno4)ccc3n2Cc2cccc(F)c2)C1 [Example 192, (R)-N-[9-(3-Fluoro-benzyl)-6-isoxazol-5-yl-2,3,4,9-tetrahydro-1H-carbazol-3-yl]-isobutyramide]	2.6 nM	7.7 nM	66.5%	238 to 241 °C	–	–
